Experimental data from US10729668B2, “Ketobutyrate compounds and compositions for treating age-related symptoms and diseases” (The Regents of the University of California, priority 2014, dated 2020).

Assays:
C. elegans = assay: Lifespan of adult C. elegans on treatment plates; assay type: in vivo, Caenorhabditis elegans
Procedure: C. elegans were synchronized by performing either a timed egg lay or an egg preparation (mix <100 gravid worms in 70 μl M9 buffer, 25 μl bleach, and 5 μl 10 N NaOH). Once the worms reached adulthood, they were picked onto NGM treatment plates containing 1.5% dimethyl sulfoxide (DMSO; Sigma D8418), 49.5 μM 5-fluoro-2′-deoxyuridine (FUDR, Sigma F0503), 50 μg/ml ampicillin, and α-KB (Sigma K401). Plates containing α-KB were adjusted to pH 6.0 (i.e., the same pH as the control plates) by the addition of NaOH. Treatment plates were seeded with OP50 E. coli as the C. elegans food source. […] Worms were moved to new plates every 4 days. All lifespan experiments were conducted at 20° C.

C57BL/6 male mice = assay: Transverse aortic constriction (TAC) induced heart failure and cardiac hypertrophy; assay type: in vivo, mouse
Procedure: Surgical procedure was performed one day before treatment with vehicle or α-KB. Cardiac output was assessed 3 weeks post-treatment by determining the cardiac ejection fraction (EF) by echo.
Transverse aortic constriction (TAC) in mice was used to induce pressure overload-induced heart failure and cardiac hypertrophy. TAC surgical procedure was performed one day before treatment with vehicle or α-KB. C57BL/6 male mice were treated with α-KB at 30 mg/kg body weight per day in drinking water. Cardiac output was assessed 3 weeks post-treatment by determining the cardiac ejection fraction (EF) measured by Echo.

ATP synthase = ATP synthase inhibition
GMC101 C. elegans strain = assay: Paralysis in C. elegans Alzheimer's disease model; assay type: in vivo, Caenorhabditis elegans; settings: 4 mM, 30° C.
Procedure: Worms were age-synchronized by performing a timed egg lay for 3 hours with about 100 gravid adults and the eggs placed in a 20° C. incubator. Once the eggs had developed to the L4 stage at 42 hours post egg lay, they were picked onto NGM treatment plates containing 49.5 μM 5-fluoro-2′-deoxyuridine (FUDR, Sigma F0503) to prevent progeny production and either 4 mM α-KB or vehicle (water) control. The worms were then shifted to 30° C. to induce amyloid-beta aggregation and paralysis. […] Most paralyzed worms could still move their heads and part of their body. All worms were transferred to fresh treatment plates on Day 4.

Complex II = molecular target: T1, Complex II (Mus musculus, UniProt Q8K2B3+Q9CQA3+Q9CXV1+Q9CZB0); assay: Complex II driven coupling assay, isolated liver mitochondria (succinate and rotenone); assay type: biochemical; settings: succinate supplemented
T1 construct: Mitochondria were isolated from mouse liver as described earlier; from tissue; host or cells: liver mitochondria of 3-month-old C57BL/6 mice
T1 sequence (Q8K2B3 43-664): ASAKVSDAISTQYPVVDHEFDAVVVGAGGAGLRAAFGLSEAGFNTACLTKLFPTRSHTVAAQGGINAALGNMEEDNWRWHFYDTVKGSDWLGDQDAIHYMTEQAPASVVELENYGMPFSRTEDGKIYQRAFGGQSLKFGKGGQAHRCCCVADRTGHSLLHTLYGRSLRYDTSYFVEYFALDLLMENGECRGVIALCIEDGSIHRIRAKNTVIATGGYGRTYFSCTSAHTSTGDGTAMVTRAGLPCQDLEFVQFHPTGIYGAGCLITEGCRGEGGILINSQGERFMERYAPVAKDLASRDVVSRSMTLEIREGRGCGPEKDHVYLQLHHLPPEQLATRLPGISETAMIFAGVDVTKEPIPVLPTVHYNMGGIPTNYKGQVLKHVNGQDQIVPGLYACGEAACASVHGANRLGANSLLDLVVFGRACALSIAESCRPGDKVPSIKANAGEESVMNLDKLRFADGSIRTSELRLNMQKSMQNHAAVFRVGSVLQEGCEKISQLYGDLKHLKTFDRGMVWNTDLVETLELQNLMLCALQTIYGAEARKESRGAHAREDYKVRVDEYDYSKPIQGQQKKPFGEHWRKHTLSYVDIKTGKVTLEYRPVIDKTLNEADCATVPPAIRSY
T1 sequence (Q9CQA3 31-282): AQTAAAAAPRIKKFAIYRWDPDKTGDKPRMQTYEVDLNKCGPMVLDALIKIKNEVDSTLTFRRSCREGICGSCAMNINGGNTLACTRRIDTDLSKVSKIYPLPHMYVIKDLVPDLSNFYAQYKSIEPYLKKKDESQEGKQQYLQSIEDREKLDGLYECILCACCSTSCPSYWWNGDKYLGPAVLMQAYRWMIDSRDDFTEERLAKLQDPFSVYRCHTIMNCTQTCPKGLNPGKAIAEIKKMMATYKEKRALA
T1 sequence (Q9CZB0 30-169): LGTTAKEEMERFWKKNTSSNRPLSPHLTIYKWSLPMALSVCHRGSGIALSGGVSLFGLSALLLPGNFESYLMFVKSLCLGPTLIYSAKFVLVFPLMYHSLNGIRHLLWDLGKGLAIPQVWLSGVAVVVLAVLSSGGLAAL
T1 sequence (Q9CXV1 57-159): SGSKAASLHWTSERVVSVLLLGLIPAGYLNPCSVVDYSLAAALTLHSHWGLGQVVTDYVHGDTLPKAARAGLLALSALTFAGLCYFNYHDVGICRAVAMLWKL
Procedure: Animal studies were performed under approved UCLA animal research protocols. Mitochondria from 3-month-old C57BL/6 mice were isolated. Briefly, livers were extracted, minced at 4° C. in MSHE+BSA (70 mM sucrose, 210 mM mannitol, 5 mM HEPES, 1 mM EGTA, and 0.5% fatty acid free BSA, pH 7.2), and rinsed several times to remove blood. All subsequent steps were performed on ice or at 4° C. The tissue was disrupted in 10 volumes of MSHE+BSA with a glass Dounce homogenizer (5-6 strokes) and the homogenate was centrifuged at 800×g for 10 minutes to remove tissue debris and nuclei. The supernatant was decanted through a cell strainer and centrifuged at 8,000×g for 10 minutes. The dark mitochondrial pellet was resuspended in MSHE+BSA and re-centrifuged at 8,000×g for 10 minutes. The final mitochondrial pellet was resuspended in 30 μl of MAS buffer (70 mM sucrose, 220 mM mannitol, 10 mM KH2PO4, 5 mM MgCl2, 2 mM HEPES, 1 mM EGTA, and 0.2% fatty acid free BSA, pH 7.2). Isolated mitochondrial respiration was measured by running coupling and electron flow assays as described. […]
Mitochondrial respiration was measured by running coupling and electron flow assays. […]

C2C12 Cells = assay: Oxygen consumption rate (OCR) in C2C12 cells, Seahorse XF-24; assay type: cell-based, mouse; settings: 1 hour treatment
Procedure: Measurement of oxygen consumption rates (OCR). OCR measurements were made using a Seahorse XF-24 analyzer (Seahorse Bioscience). C2C12 Cells were seeded in Seahorse XF-24 cell culture microplates at 30,000 cells per well in DMEM media supplemented with 10% FBS and 10 mM glucose, and incubated at 37° C. and 5% CO2 overnight. Treatment with α-KB or DMSO (vehicle control) was for 1 hour. Cells were washed in unbuffered DMEM medium (pH 7.4, 10 mM glucose) just before measurements, and maintained in this buffer with indicated concentrations of α-KB. OCR was measured three times under basal conditions and normalized to protein concentration per well.

CCC(=O)C(=O)O [α-KB, α-ketobutyrate]
lifespan as compared to untreated control subjects (C. elegans; adult C. elegans, 20° C.): extends the lifespan
potency relative to α-KG in treating, inhibiting, or reducing aging and age-related symptoms (C. elegans; in vivo): about 1 fold
mortality (C57BL/6 male mice): appeared to decrease mortality
heart (mg)/body (g) ratio (C57BL/6 male mice; end of experiment (5 weeks), Mean, STEDV): 10.72±1.98
inhibition of ATP synthase (ATP synthase): does not inhibit
delay of paralysis compared to vehicle treated worms (GMC101 C. elegans strain): up to 37%
mitochondrial respiration, Complex II-driven coupling (Complex II): no effect
basal respiration (C2C12 Cells): inhibited
maximal respiration (mitochondrial respiration upon FCCP treatment) (C2C12 Cells): inhibited
